{
  "source": "patent US20130281313A1",
  "about": "“PROGNOSTIC AND/OR PREDICTIVE BIOMARKERS AND BIOLOGICAL APPLICATIONS THEREOF” (INSTITUT GUSTAVE ROUSSY, priority 2010, published 2013)",
  "type_in_all_cases": "cell-based, human",
  "key": {"A549 cells [1]": {"test_system": "A549 cells", "test": "Targeted metabolomic studies (ATP, ADP, AMP, GSH; RRLC-MS)", "conditions": "A549 cells, 24 h", "method": "A549 cells were left untreated or treated with 25 μM CDDP alone or in combination with 5 mM PN, for 24 h. Thereafter, both attached (living) and detached (dying/dead) cells were harvested, washed once in cold PBS and pelleted (800 G for 5 min). Pellets were resuspended in 200 μL deionized water, briefly vortexed and sonicated. 800 μl ice-cold methanol was added, and samples were kept in ice for 15 min, vortexed and centrifuged at 13,000 G for 10 min at 4° C. Supernatants were dried in a SpeedVac drier (Thermo Scientific-Pierce) and stored at −80° C. until analysis. Pellets were resuspended in 150 μL 98:2 water/acetonitrile immediately before analytical determinations (see below).\nATP, ADP, AMP and GSH were quantified on a Rapid Resolution Liquid Chromatography (RRLC) 1200SL system coupled to a 6410 Triple Quadripole (QQQ) mass spectrometer (both from Agilent Technologies). For nucleotides, RRLC was performed on 150×2.1 mm, 3.5 μM Eclipse Plus columns (Agilent Technologies) with water containing 4 mM dimethylhexylamine (DMHA) plus 0.01% (v/v) acetic acid in channel A and acetonitrile in channel B, in gradient mode at a flow rate of 0.2 mL/min: t=0 min 2% B; t=9 min 32% B; t=10 min 95% B; T=12 min 95% B, re-equilibration time=6 min. Mass spectrometry was performed in positive electrospray ionization mode at +4 kV on the QQQ system operating in MRM mode. MRM transitions were optimized with direct infusions of ATP, ADP, and AMP standards with direct infusion, and four transitions were recorded for each compounds. Parent ions were adduct ions of DMHA and also proton adducts:\nFor GSH, RRLC was performed on a 150×2.1 mm, 3.5 μM Stable Bond AQ column (Agilent Technologies) with water containing 0.2% (v/v) acetic acid in channel A and methanol in channel B, in gradient mode at a flow rate of 0.3 mL/min: t=0 min 2% B; t=8 min 95% B; t=9 min 95% B; re-equilibration time=6 min. Mass spectrometry was performed as above. MRM transitions were optimized with direct infusion of GSH standards.\nData collection and analysis were performed with the MassHunter software (Agilent Technologies)."}, "[2]": {"test_system": "TP53 (phospho-Ser15, phospho-Ser46), caspase-3, caspase-9", "test": "Immunoblotting of the intrinsic apoptosis pathway", "conditions": "A549 cells, sub-apoptotic (25 μM) CDDP in the presence of PN", "method": "For the preparation of total protein extracts A549 cells were washed with cold PBS and lysed in a buffer containing 1% NP40, 20 mM HEPES (pH 7.9), 10 mM KCl, 1 mM EDTA, 10% glycerol, 1 mM orthovanadate, 1 mM PMSF, 1 mM dithiothreitol, 10 μg/mL aprotinin, 10 μg/mL leupeptin, and 10 μg/mL pepstatin, according to established protocols {Zermati, 2007}. […]"}, "A549 cells [3]": {"test_system": "A549 cells", "test": "Quantification of intracellular PN (LC-MS/MS)", "conditions": "24 or 48 h", "method": "A549 cells were cultured in absence or the presence of 5 mM PN for 24 or 48 h, harvested, washed once in cold PBS and pelleted at 800 G for 10 min. Supernatants were discarded and pellets were dissolved in 500 μL of deionized H2O by vortexing for 1 min followed by sonication for 10 min. Thereafter, lysates were centrifuged at 5,796 G for 10 min and 60 μL of the resulting supernatant were mixed with an equal volume of trichloroacetic acid (TCA). Upon additional centrifugation (5,796 G, 10 min), 50 μL of sample were injected onto the chromatographic column and PN was measured by liquid chromatography with tandem mass spectrometry (LC-MS/MS), as previously described {Johansson, 2010; Midttun, 2009}."}},
  "data": [
    {"smiles": "N.N.[Cl][Pt][Cl]", "note": "[CDDP, cis-diammineplatinum(II) dichloride]", "values": [
      {"measurement": "intracellular levels of GSH", "setting": "A549 cells [1]; 25 μM CDDP", "result": "a decrease in the intracellular levels of GSH"}
    ]},
    {"smiles": "Cc1ncc(CO)c(CO)c1O", "note": "[PN, pyridoxine]", "values": [
      {"measurement": "activating phosphorylation of TP53 on serines 15 and 46", "setting": "[2]", "result": "an increased activating phosphorylation of TP53 on serines 15 and 46"},
      {"measurement": "activation of caspases-3 and -9", "setting": "[2]", "result": "an increased activation of caspases-3 and -9"},
      {"measurement": "intracellular PN concentration upon acute addition", "setting": "A549 cells [3]", "result": "increased the intracellular PN concentration"},
      {"measurement": "Atkinson's energy charge", "setting": "A549 cells [1]; 25 μM CDDP and 5 mM PN in combination, not present with either compound alone", "result": "exhibited a bioenergetic defect"},
      {"measurement": "CDDP-induced decrease in GSH and redox-relevant metabolites (carnitine, acetylcarnitine, propionylcarnitine)", "setting": "A549 cells [1]; 25 μM CDDP with 5 mM PN", "result": "largely exacerbated by PN"}
    ]}
  ]
}
